The source of these data is patent publication US11718582B2, “(R)-4-(1-(1-(4-(trifluoromethyl)benzyl)pyrrolidine-2-carboxamide)cyclopropyl)-benzoic acid as EP4 receptor antagonist” (ROTTAPHARM BIOTECH S.R.L., priority 2018, dated 2023).

Counter-ions that a name gives are not always drawn. Like-named read-outs stand apart in the source and are kept apart here. Some results are limits rather than exact numbers.

One series addresses T1, EP4 receptor (Rattus norvegicus, UniProt P43114).
T1 construct: by the cells present in the whole blood of the rat and expressing the EP4 receptor; from tissue; host or cells: whole blood of male Wistar rats dosed orally, ex vivo
The experiment in a line: Ex-vivo functional test: reversion of PGE2 effect on LPS-induced TNF alpha release in rat whole blood (EP4 receptor occupation). Conditions: 30 mg/kg oral; for Effect per se on the release of TNF alpha (in absence of PGE2): LPS only; for Reversion of the effect of PGE2 on LPS-induced TNF alpha release: blood sampled 1 hour after treatment, **p<0.01 vs vehicle. On the procedure:
Ex-Vivo Functional Test: Evaluation in the Rat of EP4 Receptor Occupation by Compound 1 (30 mg/kg) Compared to CR6086 (30 mg/kg)
Method: The release of the cytokine TNF alpha induced by the endotoxin Lipopolysaccharide (from E. coli) and modulated by increasing concentrations of PGE2 was evaluated, by the cells present in the whole blood of the rat and expressing the EP4 receptor. As it is known from the literature, PGE2 modulates this release by inhibiting it, and the compounds tested, selective for the EP4 receptor, if present in the blood following their uptake, will be bound to the receptor, preventing PGE2 from inhibiting cytokine release. This reversal effect of the modulation of TNF alpha release can be considered a biomarker of the antagonism towards the EP4 receptor.
Male Wistar rats (Charles River, Italy) weighing 250-275 g were used, orally treated with a vehicle or Compound 1 (30 mg/kg) or CR6086 (30 mg/kg). Each treatment group consisted of 6 animals.
Measurement of the Ex-Vivo Effects in Whole Blood of the Rat:
The effects of the receptor occupancy by the compounds under examination was evaluated one hour after their administration, and compared to those measured in the presence of the vehicle alone. After gaseous anaesthesia with isofluorane, blood was taken from the abdominal aorta and transferred to tubes containing heparin (0.1-0.2 U/ml). Then 0.4 ml blood aliquots were taken and dispensed into a series of test tubes which were pre-heated at 37° C. for 10 minutes. LPS (0.1 μg/ml final concentration) were added to the samples, which represented the test control, or an LPS mix (0.1 μg/ml final concentration)+PGE2 at various concentrations. In the samples representing the basal release of cytokine, LPS was replaced by sterile phosphate buffer (PBS). The samples were incubated for 4 hours at 37° C., then 40 μl of 10 mM EDTA were added and the samples were transferred into ice. The samples were then centrifuged at 1500×g for 10 minutes at 4° C. and the plasma thus obtained was removed and stored at −80° C. until the time of the dosing. The content of TNF alpha in the plasma was measured by means of a specific commercial kit.
The final concentrations of TNF alpha were calculated for each animal treated and for each experimental condition, from which the percentage of inhibition due to increasing concentrations of PGE2 were obtained, compared to the sample containing only LPS. The cytokine release baseline values resulted to be below the ELISA assay sensitivity limit, indicated by the manufacturer. Therefore, the IC50 value was calculated from this inhibition curve. […] The mean TNF alpha values of the samples in presence of only LPS, in the different treatment groups were analysed to verify the possible intrinsic effect of the compound under examination. […]

Series [1] deals with T2, human EP4 receptor (Homo sapiens, UniProt P35408). The experiment in a line: [3H]-PGE2 binding to recombinant human EP4 receptor (HEK293 membranes). More on the design: expressed in transfected cells. The conditions noted are these: for IC50: recombinant human EP4 receptor, HEK293 membranes, radioligand 1 nM, 90 min 25° C., read-out: [3H]-PGE2 binding IC50 (nM ± SD). On the procedure:
Studies of Binding Towards the Human EP4 Receptor.
The experiments were performed in accordance with the procedure described by Abramovitz et al (Biochemica and Biophysica Acta; 1483, 285-293, 2000).
The cell membranes bearing the human EP4 receptor, stably expressed by HEK293 cells (Human Embryonic Kidney 293) were prepared as described below. After eliminating the culture medium (DMEM, supplemented with Glutamax I and containing 10% of foetal bovine serum and blasticidin 10 μg/ml) a wash of the cell monolayer was performed with 10 ml of hypotonic lysis buffer (TRIS-CI 5 mM+EDTA 5 mM-pH 7.4). The cells, which grew in adherence in the above mentioned medium at 37° C. with 5% CO2, were then detached from the growth container (150 cm^2 flask) and lysed by mechanical action, adding 20 ml of fresh lysis buffer. The lysates were stirred for 30 seconds and centrifuged at 40000×g for 22 minutes at 4° C. The final pellet was stored at −80° C. until use. At the time of the binding experiment, the membranes were thawed and re-suspended in analysis buffer (10 mM MES-KOH pH6, containing 10 mM MgCl2 and 1 mM CaCl2)) to obtain a concentration of 1 mg of proteins/ml. The protein content of the membrane suspension was determined using bovine serum albumin as a standard.
In the experiments, 10 μl aliquots of membranes were incubated with the radioligand [^3H]-Prostaglandin E2 (PGE2) at the concentration of 1 nM, in absence or in presence of various concentrations of the compounds to be tested. The non-specific binding was determined in the presence of PGE2 1 μM. The incubation, in a final volume of 0.1 ml, performed in 96 deepwell microplates, proceeded for 90 minutes at 25° C. The separation of the free radioligand from that bound to the receptor occurred by rapid filtration under vacuum, using Unifilter GFB glass fibre filtering microplates, pre-wetted with 0.3% of polyethylene-imine dissolved in the analysis buffer, followed by 3 washes with cold buffer (50 mM HEPES, NaCl 500 mM, BSA 0.1%, pH 7.4). The filtration discs were then dried at 30° C., to which 0.05 ml of Microscint-20 scintillation liquid (Perkin Elmer) was added to each and at the end the radioactivity present was measured after at least one hour of stabilization. The compound/radioligand competition curves were analysed using the “Non linear curve fitting” program (Graph Pad, version 7 for Windows), which allowed calculating the IC50 value (concentration capable of inhibiting the 50% of the radioligand binding to the receptor under examination) for each compound evaluated.

The target in series [2] is T2, human EP4 receptor. In words: Determination of cAMP in CHO cells transfected with human EP4 receptor (functional test). More on the design: expressed in transfected cells; host or cells: CHO cells. The conditions noted are these: for Agonist effect (inactive up to): cAMP production in absence of PGE2, vs 1 μM PGE2 control; for Kb: cAMP, CHO-hEP4, 30 nM PGE2, modified Cheng Prusoff; for IC50: inhibition of cAMP response to 30 nM PGE2, read-out: Antagonist effect: IC50. It is filed as cell-based. The method, then:
Determination of cAMP in CHO Cells Transfected with Human EP4 Receptor (Functional Test)
Method: Evaluation of the agonist and antagonist activity of Compound 1 in the human EP4 receptor expressed in CHO cells transfected with the human EP4 receptor, determined by measuring its effects on cAMP production in the absence and in the presence of the endogenous agonist PGE2.
The CHO cells were suspended in HBSS buffer (Invitrogen) with the addition of HEPES 20 mM (pH 7.4) and IBMX […], then distributed in microplates at a density of 20000 cells per well and incubated for 10 minutes at room temperature in the absence (control) or in presence of the compound under examination. As a reference control of the agonist activity, 1 μM of PGE2 was added to independent dosage wells. In the case of the evaluation of the antagonistic effect, the reference agonist PGE2 was instead added to a final concentration of 30 nM. After 10 minutes of incubation at room temperature, the cells were lysed and the fluorescence acceptor (cAMP labelled D2) and the fluorescence donor (anti-cAMP antibody labelled with europium cryptate) were added. After 60 minutes at room temperature, the fluorescence transfer was measured at a wavelength of 337 nm in excitation and at 620 and 665 nm in emission using a microplate reader (Envison, Perkin Elmer). The cAMP concentration was determined by dividing the measured signal at 665 nm by that measured at 620 nm (ratio). The results were expressed, in the case of the evaluation of the agonist effect, as a percentage of the control response at 1 μM of PGE2 while, in the case of the evaluation of the antagonist effect, as a percentage of inhibition of the response of the control agonist at 30 nM PGE2. For the determination of the antagonist activity, the apparent dissociation constant (Kb) was calculated by applying the modified Cheng Prusoff equation (Kb=IC50/(1+A/EC50A)); where A=concentration of the reference agonist PGE2, and EC50A=EC50 value of the reference agonist.
A general note: Changes in cAMP serve as a functional read-out for many G protein-coupled receptors.

The subject of series [3] is collagen-induced arthritis in mice. The experiment in a line: Collagen arthritis in the mouse (CIA). Type of series: in vivo.
The nature of series [4]: Pharmacokinetics in Wistar rats. The conditions noted are these: for Cmax: rat, plasma, oral. It is filed as in vivo.
The mark [5] stands for this setting: read-out: Antagonist effect: Kb.
Setting [6] is: read-out: Kb (apparent dissociation constant), antagonist.

T2 sequence (P35408 whole entry): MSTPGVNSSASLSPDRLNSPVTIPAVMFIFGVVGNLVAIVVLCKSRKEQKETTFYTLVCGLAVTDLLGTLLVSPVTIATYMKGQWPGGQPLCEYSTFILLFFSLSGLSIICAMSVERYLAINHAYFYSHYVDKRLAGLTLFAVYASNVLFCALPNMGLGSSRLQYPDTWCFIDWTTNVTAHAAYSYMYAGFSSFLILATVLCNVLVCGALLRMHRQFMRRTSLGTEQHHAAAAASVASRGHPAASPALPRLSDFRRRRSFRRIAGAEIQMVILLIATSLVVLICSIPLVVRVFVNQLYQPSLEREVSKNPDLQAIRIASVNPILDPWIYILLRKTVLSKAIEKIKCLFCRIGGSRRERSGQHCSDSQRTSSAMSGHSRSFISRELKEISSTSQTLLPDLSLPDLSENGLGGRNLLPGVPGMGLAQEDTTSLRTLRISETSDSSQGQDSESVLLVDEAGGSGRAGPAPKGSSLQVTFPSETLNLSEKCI
T1 sequence (P43114 whole entry): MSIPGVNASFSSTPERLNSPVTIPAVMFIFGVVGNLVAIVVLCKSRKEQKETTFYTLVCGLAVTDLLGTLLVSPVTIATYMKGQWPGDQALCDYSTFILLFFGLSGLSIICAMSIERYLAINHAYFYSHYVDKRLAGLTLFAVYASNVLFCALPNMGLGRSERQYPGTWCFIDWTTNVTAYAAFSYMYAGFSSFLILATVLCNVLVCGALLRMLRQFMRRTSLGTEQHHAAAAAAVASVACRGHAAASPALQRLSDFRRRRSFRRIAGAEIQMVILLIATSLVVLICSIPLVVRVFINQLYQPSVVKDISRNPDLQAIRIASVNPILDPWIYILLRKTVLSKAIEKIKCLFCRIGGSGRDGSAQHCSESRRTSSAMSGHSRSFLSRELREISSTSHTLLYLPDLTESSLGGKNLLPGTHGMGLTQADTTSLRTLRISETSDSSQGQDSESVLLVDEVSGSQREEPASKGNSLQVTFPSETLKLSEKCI

What is called IC50 is the concentration that inhibits the measured activity by half. As a reminder, the Kb is the equilibrium dissociation constant of an antagonist, usually derived from a functional assay. For the compound `O=C(O)c1ccc(C2(NC(=O)[C@H]3CC4(CCN3Cc3ccc(C(F)(F)F)cc3)CC4)CC2)cc1` [CR6086, 4-(1-(6-(4-(trifluoromethyl)benzyl)-6-azaspiro [2.5]octan-5-carboxamide)cyclopropyl) benzoic acid, reference compound], on EP4 receptor, the “Effect per se on the release of TNF alpha (in absence of PGE2)” value is “no significant effects per se” and the “Reversion of the effect of PGE2 on LPS-induced TNF alpha release” value is “statistically significant reversion of the effect of PGE2”. For the same compound, the IC50 at human EP4 receptor [1] came out at 48 ± 3 nM. Besides, on human EP4 receptor [2], the “Agonist effect (inactive up to)” value is recorded as > 10^−6 M and the IC50 worked out at 82 nM. For the same compound, the Kb on human EP4 receptor [2] (setting [5]) turned out to be 7.8 nM. Moreover, the Kb on human EP4 receptor [2] (setting [6]) came out at 7.8 nM.
On to `O=C(O)c1ccc(C2(NC(=O)[C@H]3CCCN3Cc3ccc(C(F)(F)F)cc3)CC2)cc1` [Compound 1], for which the “Effect per se on the release of TNF alpha (in absence of PGE2)” value at EP4 receptor is “no significant effects per se”. The “Reversion of the effect of PGE2 on LPS-induced TNF alpha release” value on EP4 receptor is listed as “statistically significant reversion of the effect of PGE2”. Besides, the values for the IC50 at human EP4 receptor [1] and at human EP4 receptor [2] were 45 ± 0.4 nM and 160 nM, respectively. Further, the “Progression of collagen-induced arthritis (oedema, clinical and histopathological score)” value in series [3] (45 and 90 mg/kg oral, 16 days, DBA/1 mice) is “significantly and in a dose-dependent manner reduced the evolution of the pathology”. Moreover, the “Reversion of clinical symptoms (swelling of paws) compared with CR6086 30 mg/kg” value in series [3] (compound 1 at 45 mg/kg vs CR6086 30 mg/kg in a similar study) is reported as “greater effect on the reversion of clinical symptoms”. Also, the Oral bioavailability result in series [4] was “excellent oral bioavailability”. Moreover, in series [4] (5 mg/kg), the “AUC (0-24 h)” value came to 5460 ngxh/ml. In addition, the Cmax in series [4] (5 mg/kg, converted from 4270 ng/ml, read-out: CMAX as plasma concentration) was approximately 9 µM; in series [4] (5 mg/kg, read-out: CMAX), 4270 ng/mL. For the same compound, the “Agonist effect (inactive up to)” value on human EP4 receptor [2] is reported as > 10^−6 M. Moreover, the Kb at human EP4 receptor [2] (setting [5]) and on human EP4 receptor [2] (setting [6]) was 15 nM throughout.
As to `O=C(O)c1ccc(C2(NC(=O)[C@@H]3CCCN3Cc3ccc(C(F)(F)F)cc3)CC2)cc1` [Compound 2, sodium salt of (S)-4-(1-(1-(4-(trifluoromethyl)benzyl)pyrrolidin-2-carboxamide)cyclopropyl) benzoic acid], the IC50 on human EP4 receptor [1] is 2210 ± 940 nM. The “times less active than Compound 1 in inhibiting the binding of the PGE2 ligand to the human EP4 receptor” value at human EP4 receptor [1] (relative to Compound 1) is given as “about 50 times”.
